{"source": "patent US12161647B2", "about": "“Treating hearing loss” (Massachusetts Eye and Ear Infirmary, priority 2012, dated 2024)", "key": {"[1]": {"tested_on": "deafened cochlea of Sox2-CreER; mT/mG mice", "experiment": "In vivo lineage tracing of Sox2-positive supporting cells after round window administration", "set-up": "species or system mouse", "details": "one month after LY411575 treatment, left ear; none in control ears", "text": "(§1) For the experiments using inner ear spheres, C57BL/6 (Jackson Labs) or Math1-nGFP reporter mouse (19) (a gift from Jane Johnson, University of Texas) of both sexes were used. To create organ of Corti explants with ablated hair cells, Mos-iCsp3 mice (20) were crossed with Pou4f3-Cre mice (6) (a gift from Douglas Vetter, Tufts University). For all in vivo experiments, we used 4-week-old Cre reporter line, mT/mG (Jackson Labs), crossed to a Sox2-CreER mouse (47) (a gift from Konrad Hochedlinger, Mass General Hospital). After genotyping, double transgenic animals were used for lineage tracing. We used young adult wild-type littermates of the mT/mG; Sox2-CreER mice to prevent strain effects in the response to noise, which are known to vary depending on background (22, 48). Mice were genotyped by PCR. All protocols were approved by the Institutional Animal Care and Use Committee of Massachusetts Eye and Ear Infirmary or the by the ethics committee of Keio University Union on Laboratory Animal Medicine, in compliance with the Public Health Service policy on humane care and use of laboratory animals.\n4-week-old mice were exposed free-field, awake and unrestrained, in a small reverberant chamber (22). Acoustic trauma was produced by a 2 h exposure to an 8-16 kHz octave band noise presented at 116 dB SPL. […]"}, "[2]": {"tested_on": "organ of Corti explants from Pou4f3-Cre; Mos-iCsp3 double transgenic mice", "experiment": "Organ of Corti explants after dimerizer-induced hair cell ablation", "format": "cell-based, mouse", "text": "as §1, with “All protocols were approved by the Institutional Animal Care and Use Committee of Massachusetts Eye and Ear Infirmary or the by the ethics committee of Keio University Union on Laboratory Animal Medicine, in compliance with the Public Health Service policy on humane care and use of laboratory animals.” left out\nFor explants, the organs of Corti were fixed for 15 min with 4% paraformaldehyde in PBS. […] Primary antibodies were detected with secondary antibodies conjugated with Alexa 488 and 647 (Molecular Probes). The samples were stained with rhodamine phalloidin (Invitrogen) for 15 min and viewed by confocal fluorescence microscopy (TCS SP5, Leica).\nCell counting for spheres was performed with MetaMorph software. The cell number was determined from DAPI- or Hoechst-positive nuclei. […] For explants, inner hair cells, outer hair cells, and supporting cells in the outer hair cell region were counted on cochlear whole mounts. […] High-power images of the full-length cochlea or cochlear explant cultures were assembled and analyzed in PhotoShop CS4 (Adobe). ImageJ software (NIH) was used to measure the total length of cochlear whole mounts and the length of individual counted segments. The total number of inner hair cells, outer hair cells, and supporting cells in the outer hair cell region was counted in each of four cochlear segments of 1200-1400 μm (apical, mid-apical, mid-basal, and basal). Density (cells per 100 μm) was then calculated for each segment. […] The number of Sox2-lineage-positive cells identified by GFP was counted by the same method. […]"}}}
{"smiles": "C[C@H](NC(=O)[C@@H](O)c1cc(F)cc(F)c1)C(=O)N[C@@H]1C(=O)N(C)c2ccccc2-c2ccccc21", "note": "[LY411575, N-2((2S)-2-(3,5-difluorophenyl)-2-hydroxyethanoyl)-N1-((7S)-5-methyl-6-oxo-6,7-dihydro-5H-dibenzo[b,d]azepin-7-yl)-l-alaninamide]", "values": [{"measurement": "myosin VIIa-positive cells also expressing GFP (Sox2 lineage)", "setting": "[1]", "value": "numerous"}, {"measurement": "number of inner hair cells", "setting": "[2]; any group", "value": "no significant differences"}, {"measurement": "number of myosin VIIa-positive (hair) cells in the outer hair cell region", "setting": "[2]; hair cell-ablated explants, cultured 3 d, p<0.05", "value": "increased"}, {"measurement": "number of Sox2-positive (supporting) cells", "setting": "[2]; mid-apex and mid-base of the cochlea, p<0.05", "value": "decrease"}]}
